Laboratory results as given in US20260097083A1, “METHOD FOR PRODUCING PANCREATIC ENDODERM CELLS” (Kyoto University, priority 2022, published 2026).
Where a name gives a salt, the structure may show the parent alone.

How the values were obtained:
[1] = system: PDX1+/NKX6.1+ pancreatic endoderm cells derived from human iPS cells; assay: Examination of other ROCK inhibitors for proliferating pancreatic endoderm cells; format: cell-based; conditions: 1 week, FIGS. 3-B and 3-C
Method: FIG. 3-A A schematic diagram illustrating an experiment of examining other ROCK inhibitors. […] After the elapse of one week, the cells were counted under a fluorescence microscope.
Cells were differentiated to a pancreatic endoderm cell level using a stepwise differentiation-inducing method, and were then re-seeded on a 24-well plate at 2×10^5/well. The following culture media were added to these cultured cells, and the cells were cultured for 1 week. The culture medium for the Control group was improved MEM to which 0.5×B-27 Supplement, 100 U/ml penicillin/streptomycin, 100 ng/ml KGF/FGF7, 50 ng/ml EGF, and 10 mM nicotinamide had been added. […] After fixed using 4% PFA, the cells were subjected to β-gal staining and NKX6.1 antibody immunostaining, and fluorescently stained images were acquired using BZ-800 (Keyence). The number of NKX6.1-positive cells, the NKX6.1-positive ratio, and the β-gal-positive ratio were calculated using the BZ-H4CM/Macro Cell Count function of that microscope. FIGS. 2-A and 3-A show the outline of this procedure.
The experiments were conducted in the same manner as in Example 1. FIGS. 3-B and 3-C show the results.

[2] = system: NKX6.1-positive pancreatic endoderm cells derived from human iPS cells; assay: Screening of senescence-related reagents; format: cell-based
Method: FIG. 2-A A schematic diagram illustrating senescence-related reagent screening. […] After the elapse of one week, the cells were counted under a fluorescence microscope. Cells were differentiated to a pancreatic endoderm cell level using a stepwise differentiation-inducing method, and were then re-seeded on a 24-well plate at 2×10^5/well. The following culture media were added to these cultured cells, and the cells were cultured for 1 week. […] After fixed using 4% PFA, the cells were subjected to β-gal staining and NKX6.1 antibody immunostaining, and fluorescently stained images were acquired using BZ-800 (Keyence). The number of NKX6.1-positive cells, the NKX6.1-positive ratio, and the β-gal-positive ratio were calculated using the BZ-[…]/Macro Cell Count function of that microscope. FIGS. 2-A and 3-A show the outline of this procedure. A reagent enabling proliferation of pancreatic endoderm cells derived from human iPS cells was searched for in the senescence-related reagents. […] Then, (1) the number of NKX6.1-positive cells, or (2) the ratio of NKX6.1-positive cells and the ratio of β gal-positive cells were measured after the culture. FIGS. 2-B to 2-D show the results.

[3] = system: pancreatic endoderm cells (NKX6.1-positive); conditions: added to medium containing Y-27632 50 μM, 6 days, FIG. 7
Method: The cells on Day 21 of expansion culture were cultured for 6 days using a culture medium obtained by adding various growth factors and small-molecule compounds to a culture medium for expansion culture containing Y-27632. The other conditions were the same as those of the screening of senescence-related reagents.
After passaged three times using a culture medium to which Y-27632 (50 μM) had been added, pancreatic endoderm cells were seeded on a 24-well plate coated with iMatrix at 2.0×10^5 cells/well. Each of screening reagents was added to the culture medium containing Y-27632 (50 μM), and then the cells were cultured. After 6 days, the ratio of NKX6.1-positive cells was checked through cell immunostaining.

SMILES | effect of proliferating pancreatic endoderm cells (total cells, NKX6.1-positive cells) [1] | other results
O=S(=O)(c1cccc2cnccc12)N1CCCNCC1 [Fasudil hydrochloride] | exhibited the effect of proliferating pancreatic endoderm cells | –
CC1(C)CCC(c2ccc(Cl)cc2)=C(CN2CCN(c3ccc(C(=O)NS(=O)(=O)c4ccc(N[C@H](CCN5CCOCC5)CSc5ccccc5)c(S(=O)(=O)C(F)(F)F)c4)cc3)CC2)C1 [ABT263] | – | ratio of β gal-positive cells (senescent cells) ([2]; 1 week, FIG. 2-D): reduction in the ratio of β gal-positive cells; cause inferred for the reduction in β gal-positive ratio ([2]; inferred from FIG. 2-B and 2-D): toxicity
CCn1c(-c2nonc2N)nc2cnc(Oc3cccc(NC(=O)c4ccc(OCCN5CCOCC5)cc4)c3)cc21 [GSK269962] | exhibited the effect of proliferating pancreatic endoderm cells | –
CC1=C(C(=O)Nc2cc3cn[nH]c3cc2F)C(c2ccc(C(F)(F)F)cc2)CC(=O)N1 (centres unmarked) [GSK429286A] | exhibited the effect of proliferating pancreatic endoderm cells | –
O=C(NCc1ccccc1)c1csc(Nc2ccncn2)n1 [Thiazovivin] | exhibited the effect of proliferating pancreatic endoderm cells | –
Cc1cncc2cccc(S(=O)(=O)N3CCCNC[C@@H]3C)c12 [H1152] | exhibited the effect of proliferating pancreatic endoderm cells | –
Cc1cccc(-c2n[nH]cc2-c2ccc3ncccc3n2)n1 [ALK5 inhibitor, 2-[3-[6-methylpyridin-2-yl]-1H-pyrazol-4-yl]-1,5-naphthyridine] | – | ratio of NKX6.1-positive cells (screening outcome) [3]: identified as candidates for a factor for improving expansion culture
